One test deals with Human mTOR (FLAG-TOR) (Homo sapiens, UniProt P42345). The test is described as follows: mTOR kinase assay (DELFIA format, purified enzyme). The format is biochemical. The conditions noted are these: read-out: IC50 mTOR.
For test [1], the system named is human breast MDA-MB-361 tumor cell line. Briefly: In vitro cell culture growth assay (MTS), MDA-MB-361. The note with it: Homo sapiens, MDA-MB-361, 72 h, MTS cell growth assay, three days after drug treatment, read-out: IC50 MDA-MB-361. It counts as cell-based. (Formazan colour is commonly taken as a measure of viable cells.)
Test [2] deals with human prostate PC3-mm2 tumor cell line. The test is described as follows: In vitro cell culture growth assay (MTS), PC3-mm2. The format is cell-based. The note with it: Homo sapiens, PC3MM2, 72 h, MTS cell growth assay, three days after drug treatment, read-out: IC50 PC3-mm2.
For another test, the target named is PI3K-α (Homo sapiens, UniProt P42336). The test is described as follows: PI3K-alpha fluorescence polarization assay. On the technique in general: Polarisation of emitted light reports the rotation of a fluorescent probe.
Chain of PI3K-α (P42336 whole entry, species assumed): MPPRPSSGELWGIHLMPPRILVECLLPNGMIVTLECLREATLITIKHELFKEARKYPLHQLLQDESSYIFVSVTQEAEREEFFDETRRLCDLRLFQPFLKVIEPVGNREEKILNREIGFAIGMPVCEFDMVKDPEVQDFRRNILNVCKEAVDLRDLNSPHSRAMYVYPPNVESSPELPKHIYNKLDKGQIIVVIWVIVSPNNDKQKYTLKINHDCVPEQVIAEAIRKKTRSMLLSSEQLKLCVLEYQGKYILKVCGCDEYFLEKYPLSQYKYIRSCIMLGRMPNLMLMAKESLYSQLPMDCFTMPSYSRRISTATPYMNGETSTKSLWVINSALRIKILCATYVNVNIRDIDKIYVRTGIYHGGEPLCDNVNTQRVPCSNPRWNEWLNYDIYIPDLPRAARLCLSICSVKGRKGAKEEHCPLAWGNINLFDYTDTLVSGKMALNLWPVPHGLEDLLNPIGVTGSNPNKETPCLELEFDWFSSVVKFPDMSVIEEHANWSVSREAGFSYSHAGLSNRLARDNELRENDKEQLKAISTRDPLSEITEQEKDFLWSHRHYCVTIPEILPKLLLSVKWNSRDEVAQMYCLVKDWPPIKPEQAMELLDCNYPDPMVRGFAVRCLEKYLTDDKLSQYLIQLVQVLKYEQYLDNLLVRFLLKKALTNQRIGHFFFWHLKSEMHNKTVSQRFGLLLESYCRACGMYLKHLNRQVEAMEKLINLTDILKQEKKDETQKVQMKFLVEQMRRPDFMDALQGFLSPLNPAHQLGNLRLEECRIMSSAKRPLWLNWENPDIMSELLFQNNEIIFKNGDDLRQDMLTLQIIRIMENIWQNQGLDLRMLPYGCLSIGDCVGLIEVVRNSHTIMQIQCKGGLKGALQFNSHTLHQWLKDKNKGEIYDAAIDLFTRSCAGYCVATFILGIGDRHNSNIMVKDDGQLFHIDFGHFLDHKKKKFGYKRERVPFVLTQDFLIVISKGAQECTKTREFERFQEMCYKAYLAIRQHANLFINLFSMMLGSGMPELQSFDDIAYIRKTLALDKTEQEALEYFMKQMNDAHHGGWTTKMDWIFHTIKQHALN
Chain of PI3K-α (P27986 whole entry partner, species assumed): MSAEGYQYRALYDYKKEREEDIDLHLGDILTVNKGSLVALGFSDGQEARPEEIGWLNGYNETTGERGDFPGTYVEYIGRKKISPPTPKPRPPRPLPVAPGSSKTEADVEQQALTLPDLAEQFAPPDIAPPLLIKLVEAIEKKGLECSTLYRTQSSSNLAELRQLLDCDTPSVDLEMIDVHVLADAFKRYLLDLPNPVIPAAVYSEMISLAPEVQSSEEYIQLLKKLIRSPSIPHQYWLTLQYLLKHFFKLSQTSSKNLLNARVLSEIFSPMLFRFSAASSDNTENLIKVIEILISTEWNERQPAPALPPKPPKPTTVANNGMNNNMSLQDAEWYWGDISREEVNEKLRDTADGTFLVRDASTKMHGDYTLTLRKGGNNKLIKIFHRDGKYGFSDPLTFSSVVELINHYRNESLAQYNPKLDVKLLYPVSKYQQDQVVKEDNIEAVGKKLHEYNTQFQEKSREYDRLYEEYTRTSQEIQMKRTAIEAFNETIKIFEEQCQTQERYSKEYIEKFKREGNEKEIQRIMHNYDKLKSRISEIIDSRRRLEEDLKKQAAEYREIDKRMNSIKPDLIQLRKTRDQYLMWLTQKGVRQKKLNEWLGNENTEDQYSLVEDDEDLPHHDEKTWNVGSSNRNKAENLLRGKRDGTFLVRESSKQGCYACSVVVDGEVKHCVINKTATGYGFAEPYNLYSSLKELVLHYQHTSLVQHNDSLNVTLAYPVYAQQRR
The next test concerns the target PI3K-γ (Homo sapiens, UniProt P48736). Briefly: PI3K-gamma fluorescence polarization assay. The note with it: read-out: IC50 PI3Kγ.

Structures are written as SMILES. Several values for one entry are separate records, joined by “and”; a condition that tells them apart may be missing. Identical values can stand only once. Like-named read-outs stand apart in the source and are kept apart here.

Chain of Human mTOR (FLAG-TOR) (P42345 1360-2549 limits assumed): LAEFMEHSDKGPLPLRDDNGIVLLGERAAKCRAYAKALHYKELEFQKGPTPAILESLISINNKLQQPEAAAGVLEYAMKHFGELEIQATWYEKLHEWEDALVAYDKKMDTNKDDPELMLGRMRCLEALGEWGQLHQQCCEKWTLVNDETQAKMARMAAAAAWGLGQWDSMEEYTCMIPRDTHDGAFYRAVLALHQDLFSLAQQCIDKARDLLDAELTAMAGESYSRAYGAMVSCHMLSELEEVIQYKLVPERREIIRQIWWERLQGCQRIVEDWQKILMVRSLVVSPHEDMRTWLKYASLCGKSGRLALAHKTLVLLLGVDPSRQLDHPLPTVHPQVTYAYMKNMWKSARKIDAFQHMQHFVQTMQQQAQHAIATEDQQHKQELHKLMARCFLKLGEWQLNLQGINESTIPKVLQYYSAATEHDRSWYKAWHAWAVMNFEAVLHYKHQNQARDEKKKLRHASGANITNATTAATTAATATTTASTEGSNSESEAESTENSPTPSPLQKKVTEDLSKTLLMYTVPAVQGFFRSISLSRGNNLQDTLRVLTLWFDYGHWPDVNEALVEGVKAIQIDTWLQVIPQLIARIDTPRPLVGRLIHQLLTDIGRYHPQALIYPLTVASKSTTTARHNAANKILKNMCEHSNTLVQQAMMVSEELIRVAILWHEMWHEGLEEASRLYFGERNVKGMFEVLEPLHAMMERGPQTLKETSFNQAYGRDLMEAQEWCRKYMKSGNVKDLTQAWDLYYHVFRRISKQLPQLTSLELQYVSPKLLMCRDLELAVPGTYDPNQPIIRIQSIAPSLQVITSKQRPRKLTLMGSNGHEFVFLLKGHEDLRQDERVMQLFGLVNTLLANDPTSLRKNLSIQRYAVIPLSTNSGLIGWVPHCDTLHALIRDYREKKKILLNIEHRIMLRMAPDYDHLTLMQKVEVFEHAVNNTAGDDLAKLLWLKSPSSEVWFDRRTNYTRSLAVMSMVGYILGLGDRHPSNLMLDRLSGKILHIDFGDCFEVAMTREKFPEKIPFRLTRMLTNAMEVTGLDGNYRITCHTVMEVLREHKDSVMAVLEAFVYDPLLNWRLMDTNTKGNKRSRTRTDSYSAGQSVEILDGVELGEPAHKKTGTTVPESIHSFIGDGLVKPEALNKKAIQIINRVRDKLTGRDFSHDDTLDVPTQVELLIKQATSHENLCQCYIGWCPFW
Chain of PI3K-γ (P48736 whole entry, species assumed): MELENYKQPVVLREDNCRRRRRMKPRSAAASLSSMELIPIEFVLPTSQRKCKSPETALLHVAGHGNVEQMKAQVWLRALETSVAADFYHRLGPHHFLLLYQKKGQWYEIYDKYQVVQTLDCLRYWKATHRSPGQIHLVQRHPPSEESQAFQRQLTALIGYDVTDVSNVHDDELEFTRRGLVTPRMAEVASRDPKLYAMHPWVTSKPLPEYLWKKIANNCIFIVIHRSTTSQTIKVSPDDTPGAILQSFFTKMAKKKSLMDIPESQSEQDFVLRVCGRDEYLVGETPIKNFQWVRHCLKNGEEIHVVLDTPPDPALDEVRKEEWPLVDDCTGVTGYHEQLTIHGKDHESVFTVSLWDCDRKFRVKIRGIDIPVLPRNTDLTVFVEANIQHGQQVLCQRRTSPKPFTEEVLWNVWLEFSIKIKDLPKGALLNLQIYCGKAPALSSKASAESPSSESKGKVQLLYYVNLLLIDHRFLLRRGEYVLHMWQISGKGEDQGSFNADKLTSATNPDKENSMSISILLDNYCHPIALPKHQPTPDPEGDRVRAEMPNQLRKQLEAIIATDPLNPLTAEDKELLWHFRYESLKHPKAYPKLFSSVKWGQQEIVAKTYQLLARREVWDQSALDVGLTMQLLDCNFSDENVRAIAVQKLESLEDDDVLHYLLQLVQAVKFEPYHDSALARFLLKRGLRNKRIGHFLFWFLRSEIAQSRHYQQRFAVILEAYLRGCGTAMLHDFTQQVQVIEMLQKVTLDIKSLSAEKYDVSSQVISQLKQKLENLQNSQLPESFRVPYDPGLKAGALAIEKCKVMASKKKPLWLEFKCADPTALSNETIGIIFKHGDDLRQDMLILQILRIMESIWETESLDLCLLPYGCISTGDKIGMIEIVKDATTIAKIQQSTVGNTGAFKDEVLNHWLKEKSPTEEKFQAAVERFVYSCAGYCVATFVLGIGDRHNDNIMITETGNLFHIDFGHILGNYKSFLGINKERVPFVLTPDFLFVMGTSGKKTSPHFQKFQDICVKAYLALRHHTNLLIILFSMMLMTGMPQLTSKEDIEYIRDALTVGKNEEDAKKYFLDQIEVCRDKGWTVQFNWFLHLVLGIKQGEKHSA

With `CCc1nc(-c2ccc(NC(=O)Nc3ccc(C(=O)NC4CCN(C)CC4)cc3)cc2)nc(N2CCOCC2)n1` [Example 271, 4-({[4-(4-ethyl-6-morpholin-4-yl-1,3,5-triazin-2-yl)phenyl]carbamoyl}amino)-N-(1-methylpiperidin-4-yl)benzamide], the concentration for half-maximal inhibition (IC50) (in general, the concentration at which inhibition is half-maximal) is 13 nM at Human mTOR (FLAG-TOR); 68 nM in test [1]; 129 nM in test [2]; 2 nM at PI3K-α (read-out: IC50 PI3Kα); 23 nM at PI3K-γ.

Turning to `CCCCc1nc(-c2ccc(NC(=O)Nc3ccc(C(=O)NC4CCN(C)CC4)cc3)cc2)nc(N2CCOCC2)n1` [Example 272, 4-({[4-(4-butyl-6-morpholin-4-yl-1,3,5-triazin-2-yl)phenyl]carbamoyl}amino)-N-(1-methylpiperidin-4-yl)benzamide], the IC50 at Human mTOR (FLAG-TOR) is 30 nM; in test [1] it was 70 nM; in test [2], 340 nM; on PI3K-α (read-out: IC50 PI3Kα), 5 nM; on PI3K-γ, 54 nM.

For `O=C(Nc1ccncc1)Nc1ccc(-c2nc(N3CCOCC3)nc(N3C4COCC3C(O)C4)n2)cc1` (stereo not drawn) [Example 273, 1-{4-[4-(6-hydroxy-3-oxa-8-azabicyclo[3.2.1]oct-8-yl)-6-morpholin-4-yl-1,3,5-triazin-2-yl]phenyl}-3-pyridin-4-ylurea], the IC50 was 0.8 nM on Human mTOR (FLAG-TOR); 32 nM in test [1]; 80 nM in test [2]; 4 nM on PI3K-α (read-out: IC50 PI3Kα); 33 nM on PI3K-γ.

For `CN(C)CCCc1nc(-c2ccc(NC(=O)Nc3ccncc3)cc2)nc(N2CCOCC2)n1` [Example 274, 1-(4-{4-[3-(dimethylamino)propyl]-6-morpholin-4-yl-1,3,5-triazin-2-yl}phenyl)-3-pyridin-4-ylurea], the half-inhibitory concentration (IC50) was 59 nM on Human mTOR (FLAG-TOR); 1000 nM in test [1]; 1490 nM in test [2] (PC3-mm2 cells); 1490 nM in test [2]; 34 nM on PI3K-α (read-out: IC50 PI3Kα); 33 nM at PI3K-α (read-out: IC50 PI3Kα, listed as 731). For the same compound, the IC50 on PI3K-γ was 616 nM; at PI3K-γ (listed as 731), 413 nM.

`CC(C)NCCCc1nc(-c2ccc(NC(=O)Nc3ccncc3)cc2)nc(N2CCOCC2)n1` [Example 275, 1-[4-(4-{3-[(1-methylethyl)amino]propyl}-6-morpholin-4-yl-1,3,5-triazin-2-yl)phenyl]-3-pyridin-4-ylurea]: the IC50 is 70 nM and 69 nM at Human mTOR (FLAG-TOR); 3100 nM in test [1]; 4310 nM in test [2] (PC3-mm2 cells); 4310 nM in test [2]; 46 nM on PI3K-α (read-out: IC50 PI3Kα); 44 nM on PI3K-α (read-out: IC50 PI3Kα, listed as 732). For the same compound, the half-inhibitory concentration (IC50) on PI3K-γ was 711 nM; on PI3K-γ (listed as 732), 478 nM.

On to `O=C(Nc1ccncc1)Nc1ccc(-c2nc(CCCN3CCCC3)nc(N3CCOCC3)n2)cc1` [Example 276, 1-{4-[4-morpholin-4-yl-6-(3-pyrrolidin-1-ylpropyl)-1,3,5-triazin-2-yl]phenyl}-3-pyridin-4-ylurea], for which the IC50 on Human mTOR (FLAG-TOR) is 60 nM and 75.5 nM; in test [1], 1350 nM; in test [2] (PC3-mm2 cells), 1650 nM; in test [2] it was 1650 nM; at PI3K-α (read-out: IC50 PI3Kα), 34 nM; on PI3K-α (read-out: IC50 PI3Kα, listed as 733), 31.5 nM. In addition, the figures for the IC50 at PI3K-γ and at PI3K-γ (listed as 733) were 597 nM and 412 nM, respectively.

On to `CN1CCN(CCCc2nc(-c3ccc(NC(=O)Nc4ccncc4)cc3)nc(N3CCOCC3)n2)CC1` [Example 277, 1-(4-{4-[3-(4-methylpiperazin-1-yl)propyl]-6-morpholin-4-yl-1,3,5-triazin-2-yl}phenyl)-3-pyridin-4-ylurea], for which the IC50 on Human mTOR (FLAG-TOR) is 60 nM and 59.5 nM; in test [1] it was 530 nM; in test [2] (PC3-mm2 cells), 572 nM; in test [2], 572 nM; on PI3K-α (read-out: IC50 PI3Kα) it was 30 nM; on PI3K-α (read-out: IC50 PI3Kα, listed as 734), 25.5 nM. For the same compound, the IC50 turned out to be 276 nM on PI3K-γ and 210 nM on PI3K-γ (listed as 734).

Consider `CN(C)CCNCCCc1nc(-c2ccc(NC(=O)Nc3ccncc3)cc2)nc(N2CCOCC2)n1` [Example 278, 1-{4-[4-(3-{[2-(dimethylamino)ethyl]amino}propyl)-6-morpholin-4-yl-1,3,5-triazin-2-yl]phenyl}-3-pyridin-4-ylurea], for which the IC50 on Human mTOR (FLAG-TOR) is 250 nM and 123 nM; in test [1], 2300 nM; in test [2] (PC3-mm2 cells) it was 3700 nM; in test [2], 3700 nM; at PI3K-α (read-out: IC50 PI3Kα), 26 nM; on PI3K-α (read-out: IC50 PI3Kα, listed as 735), 26.5 nM. For the same compound, the IC50 came to 344 nM at PI3K-γ and 290 nM on PI3K-γ (listed as 735).

For `O=C(Nc1ccncc1)Nc1ccc(-c2nc(CCCO)nc(N3CCOCC3)n2)cc1` [Example 279, 1-{4-[4-(3-hydroxypropyl)-6-morpholin-4-yl-1,3,5-triazin-2-yl]phenyl}-3-pyridin-4-ylurea], the IC50 at Human mTOR (FLAG-TOR) was 35 nM and 3.6 nM; in test [1] it was 176 nM; in test [2] (PC3-mm2 cells) it was 247 nM; in test [2], 247 nM; on PI3K-α (read-out: IC50 PI3Kα) it was 10 nM; on PI3K-α (read-out: IC50 PI3Kα, listed as 736), 9.5 nM. For the same compound, the concentration for half-maximal inhibition (IC50) on PI3K-γ is 70 nM; on PI3K-γ (listed as 736), 53.5 nM.

Consider `O=CCCc1nc(-c2ccc(NC(=O)Nc3ccncc3)cc2)nc(N2CCOCC2)n1` [Example 280, 1-{4-[4-morpholin-4-yl-6-(3-oxopropyl)-1,3,5-triazin-2-yl]phenyl}-3-pyridin-4-ylurea], for which the IC50 at Human mTOR (FLAG-TOR) was 4 nM and 4.45 nM; in test [1], 176 nM; in test [2] (PC3-mm2 cells) it was 404 nM; in test [2], 404 nM; on PI3K-α (read-out: IC50 PI3Kα), 5 nM; on PI3K-α (read-out: IC50 PI3Kα, listed as 737), 7 nM. Also, the half-inhibitory concentration (IC50) came out at 29 nM on PI3K-γ and 30 nM at PI3K-γ (listed as 737).

For `O=C(Nc1ccncc1)Nc1ccc(-c2nc(N3CCOCC3)nc(N3CC4COC(C3)O4)n2)cc1` (stereo not drawn) [Example 282, 1-{4-[4-(6,8-dioxa-3-azabicyclo[3.2.1]oct-3-yl)-6-morpholin-4-yl-1,3,5-triazin-2-yl]phenyl}-3-pyridin-4-ylurea], the IC50 was 4.7 nM and 4.05 nM at Human mTOR (FLAG-TOR); 83 nM in test [1]; 84 nM in test [2] (PC3-mm2 cells); 84 nM in test [2]; 10 nM on PI3K-α (read-out: IC50 PI3Kα); 11.5 nM on PI3K-α (read-out: IC50 PI3Kα, listed as 740). Moreover, the concentration for half-maximal inhibition (IC50) came to 32 nM at PI3K-γ and 34.5 nM at PI3K-γ (listed as 740).

As to `CN(C)C1CCN(C(=O)c2ccc(NC(=O)Nc3ccc(-c4nc(C5=CCOCC5)nc(N5CCOCC5)n4)cc3)cc2)CC1` [Example 283, 1-{4-[4-(3,6-dihydro-2H-pyran-4-yl)-6-morpholin-4-yl-1,3,5-triazin-2-yl]phenyl}-3-(4-{[4-(dimethylamino)piperidin-1-yl]carbonyl}phenyl)urea], the IC50 came out at 3.1 nM at Human mTOR (FLAG-TOR); 12.3 nM in test [1] (MDA-MB-361 cells); 12.3 nM in test [1]; 33.3 nM in test [2] (PC3-mm2 cells); 33.3 nM in test [2]; 1 nM at PI3K-α (read-out: IC50 PI3Kα). In addition, the concentration for half-maximal inhibition (IC50) was 0.6 nM on PI3K-α (read-out: IC50 PI3Kα, listed as 505); 11 nM at PI3K-γ; 5 nM at PI3K-γ (listed as 505).

On to `CN(C)CCNC(=O)c1ccc(NC(=O)Nc2ccc(-c3nc(C4=CCOCC4)nc(N4CCOCC4)n3)cc2)cc1` [Example 284, 4-[({4-[4-(3,6-dihydro-2H-pyran-4-yl)-6-morpholin-4-yl-1,3,5-triazin-2-yl]phenyl}carbamoyl)amino]-N-[2-(dimethylamino)ethyl]benzamide], for which the IC50 at Human mTOR (FLAG-TOR) was 0.9 nM and 0.97 nM; in test [1], 12 nM; in test [2] (PC3-mm2 cells) it was 36.3 nM; in test [2], 36.3 nM; at PI3K-α it was under 1.9 nM; on PI3K-α (read-out: IC50 PI3Kα), 0.7 nM. Moreover, the IC50 stood at 12 nM at PI3K-γ and 12.5 nM at PI3K-γ (listed as 508).

With `CCCc1nc(-c2ccc(NC(=O)Nc3ccc(N4CCN(C)CC4)cc3)cc2)nc(N2CCOCC2)n1` [Example 294, 1-[4-(4-methylpiperazin-1-yl)phenyl]-3-[4-(4-morpholin-4-yl-6-propyl-1,3,5-triazin-2-yl)phenyl]urea], the 50% inhibitory concentration (IC50) at Human mTOR (FLAG-TOR) stood at 18 nM; in test [1], 69 nM; in test [2], 154 nM; at PI3K-α (read-out: IC50 PI3Kα), 9 nM; on PI3K-γ, 26 nM.

For `CCc1nc(-c2ccc(NC(=O)Nc3ccc(OCCN(C)C)cc3)cc2)nc(N2CCOCC2)n1` [Example 295, 1-{4-[2-(dimethylamino)ethoxy]phenyl}-3-[4-(4-ethyl-6-morpholin-4-yl-1,3,5-triazin-2-yl)phenyl]urea], the IC50 on Human mTOR (FLAG-TOR) was 29 nM; in test [1] it was 133 nM; in test [2], 189 nM; at PI3K-α (read-out: IC50 PI3Kα), 19 nM; on PI3K-γ, 81 nM.

In the case of `CCc1nc(-c2ccc(NC(=O)Nc3ccc(N4CCN(C)CC4)cc3)cc2)nc(N2CCOCC2)n1` [Example 296, 1-[4-(4-ethyl-6-morpholin-4-yl-1,3,5-triazin-2-yl)phenyl]-3-[4-(4-methylpiperazin-1-yl)phenyl]urea], the IC50 on Human mTOR (FLAG-TOR) worked out at 21 nM; in test [1], 83 nM; in test [2], 133 nM; on PI3K-α (read-out: IC50 PI3Kα), 13 nM; on PI3K-γ it was 35 nM.

The values are drawn from patent publication US20090304692A1, “TRIAZINE COMPOUNDS AS PI3 KINASE AND MTOR INHIBITORS” (Wyeth, priority 2008, published 2009).
